{"source": "patent US10597388B2", "about": "“Pyridazinone herbicides” (FMC CORPORATION, priority 2014, dated 2020)", "type_in_all_cases": "in vivo", "key": {"[1]": {"tested_on": "ryegrass, Italian (Italian ryegrass, Lolium multiflorum)", "assay": "Test C greenhouse herbicide test, pre- and postemergence", "outline": "(§1)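 Two application timings: at sowing into a soil/sand blend, and on 2–18 cm seedlings in peat-vermiculite potting mix. A non-phytotoxic, surfactant-containing solvent carried the compounds. Plants were compared with controls and rated visually on 0–100 after 13–15 d.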"}, "[2]": {"tested_on": "galium (catchweed bedstraw, Galium aparine)", "assay": "Test C greenhouse herbicide test, pre- and postemergence", "outline": "as §1"}, "[3]": {"tested_on": "nutsedge, yellow (yellow nutsedge, Cyperus esculentus)", "assay": "Test C greenhouse herbicide test, pre- and postemergence", "outline": "as §1"}, "[4]": {"tested_on": "soybean (Glycine max)", "assay": "Test C greenhouse herbicide test, pre- and postemergence", "outline": "as §1"}, "[5]": {"tested_on": "barnyardgrass (Echinochloa crus-galli)", "assay": "Test C greenhouse herbicide test, pre- and postemergence", "outline": "as §1"}, "[6]": {"tested_on": "ragweed (common ragweed, Ambrosia elatior)", "assay": "Test C greenhouse herbicide test, pre- and postemergence", "outline": "as §1"}, "[7]": {"tested_on": "pigweed (Amaranthus retroflexus)", "assay": "Test C greenhouse herbicide test, pre- and postemergence", "outline": "as §1"}, "[8]": {"tested_on": "velvetleaf (Abutilon theophrasti)", "assay": "Test C greenhouse herbicide test, pre- and postemergence", "outline": "as §1"}, "[9]": {"tested_on": "blackgrass (Alopecurus myosuroides)", "assay": "Test C greenhouse herbicide test, pre- and postemergence", "outline": "as §1"}, "[10]": {"tested_on": "galium (catchweed bedstraw, Galium aparine)", "assay": "Test A greenhouse herbicide test, postemergence", "outline": "(§2)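 Plants grown in loam soil/sand blend pots were treated postemergence at 2 to 10 cm height, one- to two-leaf stage, with formulated test chemicals. After approximately 10 d in a greenhouse, injury was rated visually against untreated controls on a 0 to 100 scale (0 no effect, 100 complete control).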"}, "[11]": {"tested_on": "blackgrass (Alopecurus myosuroides)", "assay": "Test A greenhouse herbicide test, postemergence", "outline": "as §2"}, "[12]": {"tested_on": "chickweed (common chickweed, Stellaria media)", "assay": "Test C greenhouse herbicide test, postemergence", "outline": "(§3)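 Greenhouse postemergence spray on plants 2–18 cm tall; response judged visually after 13–15 d relative to untreated controls using a 0 (none) to 100 (full control) scale.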"}, "[13]": {"tested_on": "kochia (Kochia scoparia)", "assay": "Test C greenhouse herbicide test, postemergence", "conditions": "for Plant response rating, Kochia: Postemergence", "outline": "as §3"}, "[14]": {"tested_on": "oat, wild (wild oat, Avena fatua)", "assay": "Test C greenhouse herbicide test, postemergence", "conditions": "for Plant response rating, Oat, Wild: Postemergence", "outline": "as §3"}, "[15]": {"conditions": "Postemergence, 125 g ai/ha, scale 0 to 100, 0 is no effect, 100 is complete control"}, "[16]": {"conditions": "Postemergence, 250 g ai/ha, scale 0 to 100, 0 no effect, 100 complete control, 13 to 15 d"}, "[17]": {"conditions": "Preemergence, 31 g ai/ha, scale 0 to 100, 0 is no effect, 100 is complete control"}, "[18]": {"conditions": "Preemergence, 62 g ai/ha, scale 0 to 100, 0 is no effect, 100 is complete control"}, "[19]": {"conditions": "Preemergence, 125 g ai/ha, scale 0 to 100, 0 is no effect, 100 is complete control"}, "[20]": {"conditions": "Preemergence, 250 g ai/ha, scale 0 to 100, 0 no effect, 100 complete control"}, "[21]": {"conditions": "postemergence, 62 g ai/ha, scale 0 to 100, 0 no effect, 100 complete control"}, "[22]": {"conditions": "Postemergence, 31 g ai/ha, 0 to 100 scale (0 no effect, 100 complete control)"}, "[23]": {"conditions": "125 g ai/ha, 0 to 100 scale where 0 is no effect and 100 is complete control"}, "[24]": {"conditions": "125 g ai/ha, scale 0 to 100, 0 is no effect, 100 is complete control"}, "[25]": {"conditions": "250 g ai/ha, scale 0 to 100, 0 no effect, 100 complete control, 13 to 15 d"}}, "data": [{"compound": "CC(=O)Oc1c(C)nn(C)c(=O)c1-c1c(C)cc(C)c2ccccc12", "note": "[Compound 99]", "values": [{"measurement": "Plant response rating, Ryegrass, Italian", "setting": "[1]; [15]", "result": 95}, {"measurement": "Plant response rating, Ryegrass, Italian", "setting": "[1]; [16]", "result": 95}, {"measurement": "Plant response rating, Ryegrass, Italian", "setting": "[1]; [17]", "result": 90}, {"measurement": "Plant response rating, Ryegrass, Italian", "setting": "[1]; [18]", "result": 90}, {"measurement": "Plant response rating, Ryegrass, Italian", "setting": "[1]; [19]", "result": 100}, {"measurement": "Ryegrass, Italian plant response rating", "setting": "[1]; [20]", "result": 100}, {"measurement": "Ryegrass, Italian plant response rating", "setting": "[1]; [21]", "result": 90}, {"measurement": "Plant response rating, Galium", "setting": "[2]; [15]", "result": 98}, {"measurement": "Plant response rating, Galium", "setting": "[2]; [16]", "result": 98}, {"measurement": "Plant response rating, Galium", "setting": "[2]; [19]", "result": 98}, {"measurement": "Galium plant response rating", "setting": "[2]; [20]", "result": 98}, {"measurement": "Galium plant response rating", "setting": "[2]; [21]", "result": 95}, {"measurement": "Plant response rating, Nutsedge, Yellow", "setting": "[3]; [15]", "result": 75}, {"measurement": "Plant response rating, Nutsedge, Yellow", "setting": "[3]; [16]", "result": 85}, {"measurement": "Plant response rating, Nutsedge, Yellow", "setting": "[3]; [17]", "result": 20}, {"measurement": "Plant response rating, Nutsedge, Yellow", "setting": "[3]; [18]", "result": 70}, {"measurement": "Plant response rating, Nutsedge, Yellow", "setting": "[3]; [19]", "result": 60}, {"measurement": "Nutsedge, Yellow plant response rating", "setting": "[3]; [20]", "result": 90}, {"measurement": "Nutsedge, Yellow plant response rating", "setting": "[3]; [21]", "result": 55}, {"measurement": "Plant response rating, Soybean", "setting": "[4]; [15]", "result": 5}, {"measurement": "Plant response rating, Soybean", "setting": "[4]; [16]", "result": 5}, {"measurement": "Plant response rating, Soybean", "setting": "[4]; [17]", "result": 0}, {"measurement": "Plant response rating, Soybean", "setting": "[4]; [18]", "result": 0}, {"measurement": "Plant response rating, Soybean", "setting": "[4]; [19]", "result": 5}, {"measurement": "Soybean plant response rating", "setting": "[4]; [20]", "result": 20}, {"measurement": "Soybean plant response rating", "setting": "[4]; [21]", "result": 5}, {"measurement": "Barnyardgrass plant response rating", "setting": "[5]; [22]", "result": 25}, {"measurement": "Plant response rating, Barnyardgrass", "setting": "[5]; [15]", "result": 35}, {"measurement": "Plant response rating, Barnyardgrass", "setting": "[5]; [16]", "result": 35}, {"measurement": "Plant response rating, Barnyardgrass", "setting": "[5]; [17]", "result": 5}, {"measurement": "Plant response rating, Barnyardgrass", "setting": "[5]; [18]", "result": 15}, {"measurement": "Plant response rating, Barnyardgrass", "setting": "[5]; [19]", "result": 55}, {"measurement": "Barnyardgrass plant response rating", "setting": "[5]; [20]", "result": 85}, {"measurement": "Barnyardgrass plant response rating", "setting": "[5]; [21]", "result": 25}, {"measurement": "Plant response rating, Ragweed", "setting": "[6]; [15]", "result": 95}, {"measurement": "Plant response rating, Ragweed", "setting": "[6]; [16]", "result": 100}, {"measurement": "Plant response rating, Ragweed", "setting": "[6]; [17]", "result": 70}, {"measurement": "Plant response rating, Ragweed", "setting": "[6]; [18]", "result": 90}, {"measurement": "Plant response rating, Ragweed", "setting": "[6]; [19]", "result": 95}, {"measurement": "Ragweed plant response rating", "setting": "[6]; [20]", "result": 95}, {"measurement": "Ragweed plant response rating", "setting": "[6]; [21]", "result": 90}, {"measurement": "Plant response rating, Pigweed", "setting": "[7]; [15]", "result": 98}, {"measurement": "Plant response rating, Pigweed", "setting": "[7]; [16]", "result": 95}, {"measurement": "Plant response rating, Pigweed", "setting": "[7]; [17]", "result": 95}, {"measurement": "Plant response rating, Pigweed", "setting": "[7]; [18]", "result": 100}, {"measurement": "Plant response rating, Pigweed", "setting": "[7]; [19]", "result": 100}, {"measurement": "Pigweed plant response rating", "setting": "[7]; [20]", "result": 100}, {"measurement": "Pigweed plant response rating", "setting": "[7]; [21]", "result": 75}, {"measurement": "Plant response rating, Velvetleaf", "setting": "[8]; [15]", "result": 98}, {"measurement": "Plant response rating, Velvetleaf", "setting": "[8]; [16]", "result": 100}, {"measurement": "Plant response rating, Velvetleaf", "setting": "[8]; [17]", "result": 60}, {"measurement": "Plant response rating, Velvetleaf", "setting": "[8]; [18]", "result": 75}, {"measurement": "Plant response rating, Velvetleaf", "setting": "[8]; [19]", "result": 90}, {"measurement": "Velvetleaf plant response rating", "setting": "[8]; [20]", "result": 95}, {"measurement": "Velvetleaf plant response rating", "setting": "[8]; [21]", "result": 85}, {"measurement": "Blackgrass plant response rating", "setting": "[9]; [22]", "result": 20}, {"measurement": "Plant response rating, Blackgrass", "setting": "[9]; [15]", "result": 50}, {"measurement": "Plant response rating, Blackgrass", "setting": "[9]; [16]", "result": 65}, {"measurement": "Plant response rating, Blackgrass", "setting": "[9]; [17]", "result": 50}, {"measurement": "Plant response rating, Blackgrass", "setting": "[9]; [18]", "result": 70}, {"measurement": "Plant response rating, Blackgrass", "setting": "[9]; [19]", "result": 90}, {"measurement": "Blackgrass plant response rating", "setting": "[9]; [20]", "result": 90}, {"measurement": "Blackgrass plant response rating", "setting": "[9]; [21]", "result": 30}, {"measurement": "Plant response rating, Galium", "setting": "[10]; [23]", "result": 100}, {"measurement": "Plant response rating, Galium", "setting": "[10]; 500 g ai/ha, visual rating after approx. 10 d, 0 to 100 scale (0 no effect, 100 complete control)", "result": 100}, {"measurement": "Plant response rating, Blackgrass", "setting": "[11]; [23]", "result": 60}, {"measurement": "Blackgrass plant response rating", "setting": "[11]; 500 g ai/ha, 0 to 100 scale, 0 is no effect, 100 is complete control", "result": 80}, {"measurement": "Chickweed plant response rating", "setting": "[12]; [22]", "result": 90}, {"measurement": "Plant response rating, Chickweed", "setting": "[12]; [15]", "result": 90}, {"measurement": "Plant response rating, Chickweed", "setting": "[12]; [16]", "result": 90}, {"measurement": "Chickweed plant response rating", "setting": "[12]; [21]", "result": 90}, {"measurement": "Plant response rating, Kochia", "setting": "[13]; [24]", "result": 90}, {"measurement": "Plant response rating, Kochia", "setting": "[13]; [25]", "result": 95}, {"measurement": "Kochia plant response rating", "setting": "[13]; [21]", "result": 85}, {"measurement": "Plant response rating, Oat, Wild", "setting": "[14]; [24]", "result": 90}, {"measurement": "Plant response rating, Oat, Wild", "setting": "[14]; [25]", "result": 95}, {"measurement": "Oat, Wild plant response rating", "setting": "[14]; [21]", "result": 70}]}]}
